From patent US9770170B2, “Methods for diagnosing, treating, and monitoring chronic inflammatory response syndrome” (priority 2012, dated 2017)

Key:
human volunteers = test: Initial use of low dose VIP by nasal instillation (earlier trials)
Description: (§1) 3A. Treatment: Human research approval for this study was provided by Copernicus Group IRB, Cary, N.C. […] Further, certain patients were excluded from the trial for the following reason. […] Patients with these findings were excluded from the formal replacement trial.

CD4+CD25+ Treg cells = test: Flow cytometry of CD4+CD25+ T regulatory (Treg) cells; assay type: in vivo, human; conditions: 18 month versus AC2, increase from a mean of 8.9
Description: CD4^+ CD25^+ Treg cells in CIRS patients can be measured by flow cytometry. CD4^+ CD25^+ Treg cells mature in response to an inflammatory stimulation, and in particular, in response to increasing levels of TGF-β1. Matured CD4^+ CD25^+ Treg cells migrate to tissues to suppress inflammation and autoimmunity. However, if there is a pre-existing inflammatory response ongoing in tissues, CD4^+ CD25^+ Treg cells may turn into autoreactive T cells. Therefore, the determination of CD4^+ CD25^+ Treg cells in blood as well as in tissues may be helpful in assessing the status of inflammation in CIRS patients.

[1] = test system: patients with clinically-confirmed CIRS-WDB; test: Open-label VIP replacement trial: laboratory parameters (CLIA labs); conditions: for Estra-M (estradiol in males) mean value: Control 23.1, Base 36, AC2 30.3; for VIP level mean value: Control 28.9, Base 9.3, AC2 14.4; for Estra-F (estradiol in females) mean value: Control 29.8, Base 28, AC2 26.6; for Lipase mean value: Control 30.1, Base 24.2, AC2 30.8; for MSH mean value: Control 37.2, Base 9.4, AC2 16.8; for VIT D (25-OH vitamin D) mean value: Control 38.4, Base 19.4, AC2 24.1; for VEGF mean value: Control 65, Base 61, AC2 95.3; for Test-F (testosterone in females) mean value: Control 282, Base 20, AC2 18.9; for MMP-9 mean value: Control 332, Base 628, AC2 358; for Test-M (testosterone in males) mean value: Control 415, Base 298.8, AC2 293.5; for TGF (TGF beta-1) mean value: Control 2380, Base 12579, AC2 13015; for C4a mean value: Control 2830, Base 8346, AC2 4662
Description: as §1
(§2) All patients enrolled in the trial were confirmed to be exposed to WDB by observation of illness acquisition solely following water intrusion followed by either (1) visible microbial growth; (2) specification of molds by QPCR DNA testing; or (3) musty smells. All patients met the case criteria established by the GAO (US GAO 2008). Patients were known to the clinic with a 36-month mean duration of prior treatment following exposure to WDB.
(§3) For the experimental protocol, subjects self-administered 50 mcg VIP (Aviptadil; Bachem AG, Switzerland) four times a day via nasal aerosol and returned to the clinic to review symptoms and clinical course, and undergo interval physical exam and laboratory exam at scheduled intervals. Clinical data were collected before any treatments, or baseline (BASE); after all other treatments and before VIP (AC2); after 12 months of VIP (12M); and after 18 months of VIP (18M). Data collection included physician recorded symptoms in a medical history (Table 2); levels of VIP, MSH, C4a, TGF beta-1, VEGF, MMP9, estradiol, testosterone, 25-0H vitamin D, lipase, CBC and CMP. Measurement of CD4+CD25+T regulatory (Treg) cells was not available at BASE; Treg testing was performed at AC2 and 18 month time periods. Laboratory testing for all analytes was performed by high complexity CLIA-certified labs including LabCorp and Quest Diagnostics. All data were compared to either established normative values or values from prior testing of healthy control populations (N=850) performed at this clinic. Data were analyzed by two-sample T-tests for each of two study time points and one-sample T-tests that compared the specified data to the corresponding historical control values. A Bonferroni correction to the p-values was done to control the experiment-wise error rate. A p value of <0.001 was chosen as the determinant of significance for the study.

[2] = test system: patients with clinically-confirmed CIRS-WDB; test: Open-label VIP replacement trial: physician recorded symptoms; assay type: in vivo, human; conditions: for SX (symptoms) mean value: Control 2.9, Base 29.8, AC2 17.8
Description: as §1, §2, §3

[3] = test system: patients with clinically-confirmed CIRS-WDB; test: Stress echocardiography, pulmonary artery systolic pressure (PASP) in exercise; assay type: in vivo, human; conditions: all subjects, within two months; entry criterion rise exceeding 8 mm Hg versus resting PASP
Description: Entry criteria also included a rise in pulmonary artery systolic pressure (PASP) in exercise as measured by stress echocardiography that exceeded 8 mm Hg as compared to resting PASP. Standard Bruce protocols were employed during stress echocardiography testing. […] All patients achieved target heart rate; none developed ischemic changes on EKG or chest pain during stress testing.

[4] = test system: patients with clinically-confirmed CIRS-WDB; test: Open-label VIP replacement trial: safety and tolerability
Description: as §3

[5] = initial use of low dose VIP by nasal instillation

For CC[C@H](C)[C@H](NC(=O)[C@H](CO)NC(=O)[C@H](CC(N)=O)NC(=O)[C@H](CC(C)C)NC(=O)[C@H](Cc1ccc(O)cc1)NC(=O)[C@H](CCCCN)NC(=O)[C@H](CCCCN)NC(=O)[C@@H](NC(=O)[C@H](C)NC(=O)[C@H](CCSC)NC(=O)[C@H](CCC(N)=O)NC(=O)[C@H](CCCCN)NC(=O)[C@H](CCCNC(=N)N)NC(=O)[C@H](CC(C)C)NC(=O)[C@H](CCCNC(=N)N)NC(=O)[C@@H](NC(=O)[C@H](Cc1ccc(O)cc1)NC(=O)[C@H](CC(N)=O)NC(=O)[C@H](CC(=O)O)NC(=O)[C@@H](NC(=O)[C@H](Cc1ccccc1)NC(=O)[C@@H](NC(=O)[C@H](C)NC(=O)[C@H](CC(=O)O)NC(=O)[C@H](CO)NC(=O)[C@@H](N)Cc1c[nH]cn1)C(C)C)[C@@H](C)O)[C@@H](C)O)C(C)C)C(=O)N[C@@H](CC(C)C)C(=O)N[C@@H](CC(N)=O)C(N)=O [VIP, Aviptadil], the “Safety of low dose VIP by nasal instillation” value (human volunteers; human volunteers, initial use) was “shown to be safe”, the “Effect on pulmonary artery responses to exercise” value (human volunteers; [5]) was “blunted accentuated pulmonary artery responses to exercise” and the Effect on symptoms (human volunteers; [5]) was “prompt reduction in symptoms”. The “CD4+CD25+ Treg cells, mean” value (CD4+CD25+ Treg cells) was 22.5, the “Inflammatory parameters versus controls” value ([1]; VIP nasal spray, open-label trial) was “not significantly different from controls” and the “Estra-M (estradiol in males) mean value” ([1]; after 12 months of VIP) was 27.7. For the same molecule, the “VIP level mean value” ([1]; after 12 months of VIP) was 12.3, the “Estra-F (estradiol in females) mean value” ([1]; after 12 months of VIP) was 27.8 and the Lipase mean value ([1]; after 12 months of VIP) was 30.7. The MSH mean value ([1]; after 12 months of VIP) was 17.3, the “VIT D (25-OH vitamin D) mean value” ([1]; after 12 months of VIP) was 38.3 and the VEGF mean value ([1]; after 12 months of VIP) was 73.4. The “Test-F (testosterone in females) mean value” ([1]; after 12 months of VIP) was 22.6, the MMP-9 mean value ([1]; after 12 months of VIP) was 302 and the “Test-M (testosterone in males) mean value” ([1]; after 12 months of VIP) was 546.7. The “TGF (TGF beta-1) mean value” ([1]; after 12 months of VIP) was 5359, the C4a mean value ([1]; after 12 months of VIP) was 5679 and the “Estra-M (estradiol in males) mean value” ([1]; after 18 months of VIP) was 22.8. The “VIP level mean value” ([1]; after 18 months of VIP) was 16.6, the “Estra-F (estradiol in females) mean value” ([1]; after 18 months of VIP) was 28.9 and the Lipase mean value ([1]; after 18 months of VIP) was 27.9. The MSH mean value ([1]; after 18 months of VIP) was 18.2, the “VIT D (25-OH vitamin D) mean value” ([1]; after 18 months of VIP) was 39.3 and the VEGF mean value ([1]; after 18 months of VIP) was 66.2. The “Test-F (testosterone in females) mean value” ([1]; after 18 months of VIP) was 25.2, the MMP-9 mean value ([1]; after 18 months of VIP) was 290 and the “Test-M (testosterone in males) mean value” ([1]; after 18 months of VIP) was 511.5. For the same molecule, the “TGF (TGF beta-1) mean value” ([1]; after 18 months of VIP) was 4040, the C4a mean value ([1]; after 18 months of VIP) was 3306 and the “Patient values versus controls by the end of the trial (symptoms, MSH, VIP, MMP9, C4a, TGF-β1, 25-OH Vitamin D, testosterone in males)” value ([1]; end of the trial, baseline differed from controls at p<0.01) was “not statistically different from controls, except for VIP and MSH”. For the same molecule, the Quality of life ([2]; 20 patients, open-label trial) was “enhanced quality of life”, the “SX (symptoms) mean value” ([2]; after 12 months of VIP, 50 mcg four times a day nasal aerosol) was 5.5 and the “SX (symptoms) mean value” ([2]; after 18 months of VIP) was 3.4. The “Symptom reduction versus controls” value ([2]; all treated patients) was “Symptom reduction to equal those of controls”, the “Elevated PASP in stress exercise testing reduced to” value [3] was less than 8 mm Hg and the Tolerability ([4]; 18 month study, 20 patients, nasal aerosol) was “tolerated the drug well”. For the same molecule, the “Changes in CBC and CMP” value ([4]; during the trial) was “No changes”, the “Dropouts due to adverse effects” value ([4]; over the course of the 18 month study) was “no dropouts due to adverse effects” and the “Elevated lipase, cases” value ([4]; resolved without cessation of use of VIP) was “One patient had a transient elevated level of lipase without abdominal pain”. For the same molecule, the “Lipase levels during the trial” value ([4]; whole cohort) was “did not rise”.
